# Assay results taken from patent US20100021427A1, “Use of Antiviral Peptides For Treatment of Infections Caused by Drug-Resistant HIV” (Tianjin FusoGen Pharmaceuticals, Inc., priority 2008, published 2010).
# Columns and labels:
# POPC LUVs [1] = test: Isothermal titration calorimetry (ITC), peptide-lipid binding; conditions: LUVs injected into peptide solution
# Protocol: (§1) So, the POPC LUV liposome system was employing to investigate the binding activity of FS-01 to lipid membranes. Large unilamellar vesicles (LUVs) of 1-palmitoyl-2-oleoyl-sn-glycero-3-phosphocholine (POPC) liposome were prepared as previously described (Liu, S., et al. J.BIOL.CHEM. 2007; 282: 9612-9620). Briefly, 20 mg of POPC stock solution was dried under a stream of nitrogen and stored in vacuum overnight to completely remove trace amounts of organic solvent. The dried lipid film was suspended by vortexing in 2 mL PBS buffer. The resultant multilamellar vesicle suspension was freeze-thawed for 5 cycles and then successively extruded through two stacked polycarbonate filters (0.1 μm) 13 times using an Avanti miniextruder.
# Solutions were degassed under vacuum prior to use. LUVs of POPC were injected into the chamber containing a peptide solution or buffer only (as a control). The heats generated in control experiments by injecting lipid vesicles into buffer without a peptide were subtracted from the heats produced in the corresponding peptide-lipid binding experiments. Data acquisition and analyses were performed using MicroCal's Origin software (Version 7.0).
# HIV-1IIIB = test: HIV-1IIIB-mediated infection of MT-2 cells; type: cell-based
# Protocol: (§2) A dye transfer assay was used for detection of HIV-1 mediated cell-cell fusion as previously described in (Jiang, S., et al. Antimicrob.Agents Chemother. 2004; 48: 4349-4359. In brief, H9/HIV-1IIIB-infected cells were labeled with a fluorescent reagent, Calcein-AM (Molecular Probes, Inc., Eugene, OR) and then incubated with MT-2 cells (ratio =1:5) in 96-well plates at 37° C. for 2 h in the presence or absence of peptides. The fused and unfused calcein-labeled HIV-1-infected cells were counted under an inverted fluorescence microscope (Zeiss, Germany) with an eyepiece micrometer disc. The inhibition percent of cell-cell fusion and the IC50 values were calculated as described. […] The inhibitory activity of FS-01 on HIV-1-mediated infection was conducted too.
# Two T20-sensitive and five T20-resistant strains with well defined genetic mutations conferring the resistance were used in this experiment (Rimsky, L. T., et al. J.VIROL. 1998; 72: 986-993). Briefly, 1×10^4 MT-2 cells were infected with HIV-1 isolates at 100 TCID50 (50% tissue culture infective dose) in 200 μl RPMI 1640 medium containing 10% FBS in the presence or absence of FS-01 at graded concentrations overnight. Then the culture supernatants were removed and fresh media without FS-01 were added. […]
# 93BR020 (clade F, X4R5) = test: Primary HIV-1 isolate infection of PBMC, p24 ELISA; type: cell-based; conditions: p24 production, 7 days post infection
# Protocol: (§3) The inhibitory activity of FS-01 against primary HIV-1 isolates was determined as previously described in (Jiang, S., et al. ANTIMICROB. AGENTS CHEMOTHER. 2004; 48: 4349-4359. The peripheral blood mononuclear cells (PBMC) were isolated from the blood of healthy donors using a standard density gradient (Histopaque-1077, Sigma) centrifugation. The cells were plated in 75-cm plastic flasks and incubated at 37° C. for 2 h. The nonadherent cells were collected and resuspended at 5×10^5/mL in RPMI 1640 medium containing 10% FBS, 5 μg of phytohemagglutinin (PHA)/mL, and 100 U of interleukin-2/mL, followed by incubation at 37° C. for 3 days. The PHA-stimulated cells were infected with the corresponding primary HIV-1 isolates at a multiplicity of infection (MOI) of 0.01 in the absence or presence of FS-01 at graded concentrations. Culture media were changed every 3 days. The supernatants were collected 7 days post infection and tested for p24 antigen by ELISA. The percent inhibition of p24 production and IC50/IC90 values were calculated.
# 93IN101 (clade C, R5) = test: Primary HIV-1 isolate infection of PBMC, p24 ELISA; type: cell-based; conditions: p24 production, 7 days post infection
# Protocol: as §3
# 94UG103 (clade A, X4R5) = test: Primary HIV-1 isolate infection of PBMC, p24 ELISA; type: cell-based; conditions: p24 production, 7 days post infection
# Protocol: as §3
# 92US657 (clade B, R5) = test: Primary HIV-1 isolate infection of PBMC, p24 ELISA; type: cell-based; conditions: p24 production, 7 days post infection
# Protocol: as §3
# 92UG001 (clade D, X4R5) = test: Primary HIV-1 isolate infection of PBMC, p24 ELISA; type: cell-based; conditions: p24 production, 7 days post infection
# Protocol: as §3
# 92TH009 (clade E, R5) = test: Primary HIV-1 isolate infection of PBMC, p24 ELISA; type: cell-based; conditions: p24 production, 7 days post infection
# Protocol: as §3
# NL4-3 (V38A/N42T) = type: cell-based, HIV-1; conditions: T20-resistant (R) virus, MT-2 cells, p24, fourth day; read-out: IC50 (Mean ± SD)
# Protocol: (§4) Two T20-sensitive and five T20-resistant strains with well defined genetic mutations conferring the resistance were used in this experiment (Rimsky, L. T., et al. J.VIROL. 1998; 72: 986-993). Briefly, 1×10^4 MT-2 cells were infected with HIV-1 isolates at 100 TCID50 (50% tissue culture infective dose) in 200 μl RPMI 1640 medium containing 10% FBS in the presence or absence of FS-01 at graded concentrations overnight. Then the culture supernatants were removed and fresh media without FS-01 were added. On the fourth day post-infection, 100 μl of culture supernatants were collected from each well, mixed with equal volumes of 5% Triton X-100 and assayed for p24 antigen by ELISA.
# NL4-3 (V38E/N42S) = type: cell-based, HIV-1; conditions: T20-resistant (R) virus, MT-2 cells, p24, fourth day; read-out: IC50 (Mean ± SD)
# Protocol: as §4
# NL4-3 (parental) = type: cell-based, HIV-1; conditions: T20-sensitive (S) virus, MT-2 cells, p24, fourth day; read-out: IC50 (Mean ± SD)
# Protocol: as §4
# NL4-3 (V38A) = type: cell-based, HIV-1; conditions: T20-resistant (R) virus, MT-2 cells, p24, fourth day; read-out: IC50 (Mean ± SD)
# Protocol: as §4
# NL4-3 (N42S) = type: cell-based, HIV-1; conditions: T20-sensitive (S) virus, MT-2 cells, p24, fourth day; read-out: IC50 (Mean ± SD)
# Protocol: as §4
# NL4-3 (V38A/N42D) = type: cell-based, HIV-1; conditions: T20-resistant (R) virus, MT-2 cells, p24, fourth day; read-out: IC50 (Mean ± SD)
# Protocol: as §4
# NL4-3 (N42T/N43K) = type: cell-based, HIV-1; conditions: T20-resistant (R) virus, MT-2 cells, p24, fourth day; read-out: IC50 (Mean ± SD)
# Protocol: as §4
# [2] = tested on: HIV-1IIIB-mediated cell-cell fusion (H9/HIV-1IIIB-infected cells with MT-2 cells); test: Dye transfer assay of HIV-1 mediated cell-cell fusion; type: cell-based
# Protocol: as §2
# N36 [3] = biological target: T1, N36 (Human immunodeficiency virus type 1 group M subtype B, UniProt P04578); test: Native polyacrylamide gel electrophoresis (N-PAGE), 6-HB formation; type: binding, HIV; conditions: 40 μM, 37° C. 30 min
# T1 construct: protease-resistant N- and C-peptides from gp41
# T1 sequence (P04578 546-581): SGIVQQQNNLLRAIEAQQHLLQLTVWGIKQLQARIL
# Protocol: Native polyacrylamide gel electrophoresis (N-PAGE) was carried out to determine the 6-HB formation between the N- and C-peptides using the described previously (Liu, S., et al. PEPTIDES 2003, 24:1303-1313). […] The mixture was loaded onto a 10×1.0-cm precast 18% Tris-glycine gels (Invitrogen, Carlsbad, Calif.) at 25 μL/per well with an equal volume of Tris-glycine native sample buffer (Invitrogen). Gel electrophoresis was carried out with 125 V constant voltage at room temperature for 2 h. The gel was then stained with Coomassie blue and imaged with a FluorChem 8800 Imaging System (Alpha Innotech Corp., San Leandro, Calif.).
# POPC LUVs [4] = test: Tryptophan fluorescence spectroscopy, peptide-lipid interaction; type: binding; conditions: peptide 10 μM, POPC LUVs 2 mM, excitation 295 nm
# Protocol: as §1
# Spectra were baseline-corrected by subtracting blank spectra of the corresponding solutions without peptide.
# N36 [5] = biological target: T1, N36; test: Circular dichroism (CD) spectroscopy and thermal denaturation of peptide/N36 mixtures; type: binding, HIV
# Protocol: Circular dichroism (CD) spectroscopy was performed following the method previously described in He, Y., et al. J.BIOL.CHEM. 2007; 282: 25631-25639. […] The final peptide concentration was 10 μM in 50 mM sodium phosphate and 150 mM NaCl, pH 7.2. The N-, C-peptides as well as FS-01 by itself was also tested. CD spectra of these individual peptides and peptide mixtures were acquired on Jasco spectropolarimeter (Model J-715, Jasco Inc., Japan) at room temperature using a 5.0-nm band with, 0.1-nm resolution, 0.1-cm path length, 4.0-s response time, and a 50-nm/min scanning speed. The spectra were corrected by subtraction of a blank corresponding to the solvent. The a-helical content was calculated from the CD signal by dividing the mean residue ellipticity at 222 nm by the value expected for 100% helix formation (−33,000 degrees cm^2 dmol^−1) according to existing literature (Shu, W., et al. BIOCHEMISTRY 2000; 39: 1634-1642; Chen, Y. H., et al. BIOCHEMISTRY 1974; 13: 3350-3359). Thermal denaturation was monitored at 222 nm by applying a thennal gradient of 2° C./min in the range of 4-98° C. To determine the reversibility, the peptide mixtures were then cooled to 4° C. and kept in the CD chamber at 4° C. for 30 min, followed by monitoring of thermal denaturation as described above. The melting curve was smoothened, and the midpoint of the thermal unfolding transition (Tm) values was calculated using Jasco software utilities.
# [6] = biological target: T2, 6-HB between C34-biotin and N36 (Human immunodeficiency virus type 1 group M subtype B, UniProt P04578); test: ELISA (mAb NC-1) of inhibition of 6-helix bundle formation; type: biochemical, HIV
# T2 construct: protease-resistant N- and C-peptides from gp41
# T2 sequence (P04578 546-581): as above
# Protocol: A 96-well polystyrene plate (Costar, Corning Inc., Corning, N.Y.) was coated with a 6-HB-specific monoclonal antibody NC-1 IgG (4 μg/mL in 0.1 M Tris, pH 8.8). […] The mixture was then added to the NC-1-coated plate, followed by incubation at room temperature for 30 min and washing with a washing buffer (PBS containing 0.1 % Tween 20) three times. Then streptavidin-labeled horseradish peroxidase (Invitrogen) and the substrate 3,3′,5,5′-tetramethylbenzidine (Sigma) were added sequentially. Absorbance at 450 nm (A450) was measured using an ELISA reader (Ultra 384, Tecan, Research Triangle Park, N.C.). The percent inhibition by the peptides and the IC50 values were calculated as previously described (Jiang, S. B., et al J.EXP.MED. 1991; 174: 1557-1563).
substance,measurement,setting,value
Ac-SWETWEREIENYTRQIYRILEESQEQQDRNERDLLE-NH2 [FS-01],binding constant to POPC LUVs,POPC LUVs [1],too weak to calculate the binding constant
same,"inhibition of HIV-1IIIB-mediated infection of MT-2 cells, compared with T20",HIV-1IIIB,more potent
same,IC50,"93BR020 (clade F, X4R5); read-out: IC50 (Mean ± SD)",0.0125 ± 0.00676 µM
same,IC90,"93BR020 (clade F, X4R5); read-out: IC90 (Mean ± SD)",0.0716 ± 0.0285 µM
same,IC50,"93IN101 (clade C, R5); read-out: IC50 (Mean ± SD)",0.0343 ± 0.00321 µM
same,IC90,"93IN101 (clade C, R5); read-out: IC90 (Mean ± SD)",0.0906 ± 0.0065 µM
same,IC50,"94UG103 (clade A, X4R5); read-out: IC50 (Mean ± SD)",0.00394 ± 0.00129 µM
same,IC90,"94UG103 (clade A, X4R5); read-out: IC90 (Mean ± SD)",0.00743 ± 0.00216 µM
same,IC50,"92US657 (clade B, R5); read-out: IC50 (Mean ± SD)",0.0278 ± 0.00866 µM
same,IC90,"92US657 (clade B, R5); read-out: IC90 (Mean ± SD)",0.212 ± 0.084 µM
same,IC50,"92UG001 (clade D, X4R5); read-out: IC50 (Mean ± SD)",0.0119 ± 0.00301 µM
same,IC90,"92UG001 (clade D, X4R5); read-out: IC90 (Mean ± SD)",0.0357 ± 0.00659 µM
same,IC50,"92TH009 (clade E, R5); read-out: IC50 (Mean ± SD)",0.21 ± 0.00991 µM
same,IC90,"92TH009 (clade E, R5); read-out: IC90 (Mean ± SD)",0.619 ± 0.039 µM
same,IC50,NL4-3 (V38A/N42T),0.0304 ± 0.00436 µM
same,IC50,NL4-3 (V38E/N42S),0.0435 ± 0.00336 µM
same,IC50,NL4-3 (parental),0.0126 ± 0.00118 µM
same,IC50,NL4-3 (V38A),0.00344 ± 0.00023 µM
same,IC50,NL4-3 (N42S),0.00268 ± 0.00087 µM
same,IC50,NL4-3 (V38A/N42D),0.0478 ± 0.0047 µM
same,IC50,NL4-3 (N42T/N43K),0.0378 ± 0.0156 µM
same,fold more active than T20 in inhibiting membrane fusion,[2],about 6 fold
same,IC50,"[2]; 37° C. for 2 h, read-out: IC50, inhibition of cell-cell fusion",0.0036 µM
same,6-HB formation with N36 (up-shift of peptide band),N36 [3],able to form 6-HB with N36
same,shift of tryptophan fluorescence spectra in POPC LUVs compared to PBS,POPC LUVs [4],did not show remarkable fluorescence spectra shift
same,higher melting temperature of FS-01/N36 complex compared to C34/N36 complex,N36 [5],10 °C
same,helical content in the presence of N36,"N36 [5]; CD at 222 nm, equal molar with N36, 10 μM, pH 7.2",93%
same,formation of α-helical complexes with N36 (CD minimum at 208 and 222 nm),"N36 [5]; equal molar with N36, 10 μM",formation of secondary α-helical structure
same,melting temperature (Tm) of complex with N36,N36 [5]; thermal denaturation monitored at 222 nm,about 72 °C
same,IC50,[6],0.12 µM
